pIC50: −log10 of the molar value. In brackets after ≈: the same amount, converted by molar mass. Where two headings read alike, the source gives them in different places.
Key:
[1] = system: HEK293 human embryonic kidney cells; experiment: Cytotoxicity assay; format: cell-based; settings: mean (n = 2)
Description: (§1) Cytotoxicity assays were conducted using the protocols previously reported.

Cytotoxicity assay = format: cell-based, human; settings: human, HEK293 human embryonic kidney cells, mean (n = 2), read-out: Cytotoxicity (IC50), concentration of compound at 50% cytotoxicity
Description: as §1

MRSA ATCC 43300 = experiment: Antimicrobial MIC, MRSA (CO-ADD); format: cell-based, methicillin-resistant S. aureus; settings: Staphylococcus aureus, read-out: MIC MRSA
Description: (§2) The susceptibility of bacterial strains S. aureus (ATCC 25923), E. coli (ATCC 25922) and P. aeruginosa (ATCC 27853) to antibiotics and compounds was determined using protocols reported previously. Additional antimicrobial evaluation against MRSA (ATCC 43300), Klebsiella pneumoniae (ATCC 700603), Acinetobacter baumannii (ATCC 19606), Candida albicans (ATCC 90028) and Cryptococcus neoformans (ATCC 208821) was undertaken at the Community for Open Antimicrobial Drug Discovery at The University of Queensland (Australia) according to their standard protocols reported previously.

E. coli ATCC 25922 [2] = experiment: Erythromycin enhancement against E. coli; format: cell-based, Escherichia coli; settings: erythromycin fixed at 10.9 µM (8 µg/mL)
Description: (§3) Antibiotic enhancer concentrations were determined using previously reported protocols.

P. aeruginosa ATCC 27853 [3] = experiment: Doxycycline enhancement against P. aeruginosa; format: cell-based, Pseudomonas aeruginosa; settings: doxycycline fixed at 4.5 µM
Description: as §3
We then evaluated the set of analogues for the ability to enhance the antibiotic activity of doxycycline against P. aeruginosa ATCC 27853 and of erythromycin against E. coli ATCC 25922 (Table 2). In the case of doxycycline, a fixed concentration of the antibiotic of 4.5 μM, which is twenty-fold lower than the intrinsic MIC 90 μM against this organism, was used. Each of the test compounds was then evaluated at a range of concentrations varying from 3.125 to 50–100 μM, with the upper concentration dependent upon the compounds intrinsic MIC towards P. aeruginosa (Table 1). […] While the observation of cytotoxicity/hemolytic properties of 16a–c, 14f and 13f reduces our interest in these analogues, analogues 13b and 13d were identified as non-toxic and strong enhancers of the action of doxycycline towards P. aeruginosa.

S. aureus ATCC 25923 = experiment: Antimicrobial MIC, S. aureus; format: cell-based; settings: Staphylococcus aureus, ATCC25923, mean (n = 3)
Description: as §2

P. aeruginosa ATCC 27853 [4] = experiment: Antimicrobial MIC, P. aeruginosa; format: cell-based; settings: Pseudomonas aeruginosa, ATCC27853, mean (n = 3)
Description: as §2

C. albicans ATCC 90028 = experiment: Antifungal MIC, C. albicans (CO-ADD); format: cell-based; settings: Candida albicans, ATCC90028, mean (n = 2)
Description: as §2

E. coli ATCC 25922 [5] = experiment: Antimicrobial MIC, E. coli; format: cell-based, Escherichia coli; settings: mean (n = 3)
Description: as §2

[6] = system: C. neoformans ATCC 208821; experiment: Antifungal MIC, C. neoformans (CO-ADD); format: cell-based; settings: Cryptococcus neoformans, ATCC208821, mean (n = 2)
Description: as §2

human red blood cells = experiment: Hemolytic assay; format: cell-based; settings: mean (n = 2)
Description: Hemolysis assays were conducted using the protocols previously reported.

A. baumannii AYE = experiment: Intrinsic MIC, A. baumannii AYE; format: cell-based; settings: Acinetobacter baumannii, read-out: MIC alone, A. b
Description: as §3

P. aeruginosa PAO1 = experiment: Intrinsic MIC, P. aeruginosa PAO1; format: cell-based; settings: Pseudomonas aeruginosa
Description: as §3

K. pneumoniae ATCC 13883 = experiment: Intrinsic MIC, K. pneumoniae ATCC 13883; format: cell-based; settings: Klebsiella pneumoniae
Description: as §3

[7] = Escherichia coli, ATCC25922, E. coli ATCC 25922
[8] = A. baumannii AYE, substance alone
[9] = P. aeruginosa PAO1, substance alone (no antibiotic / no enhancer), read-out: MIC alone, P. a
[10] = ATCC13883, K. pneumoniae ATCC 13883, substance alone, read-out: MIC alone, K. p

Compound | pIC50 (Cytotoxicity assay) | MIC (MRSA ATCC 43300; MRSA ATCC 43300, mean (n = 2)) [µM] | Eryth/E. c: concentration required to restore erythromycin activity (E. coli ATCC 25922 [2]) [µM] | Eryth/E. c: fold change (intrinsic MIC of test compound / combination MIC) (E. coli ATCC 25922 [2]) [fold] | Dox/P. a: concentration required to restore doxycycline activity (P. aeruginosa ATCC 27853 [3]) [µM] | MIC (S. aureus ATCC 25923) [µM] | MIC (P. aeruginosa ATCC 27853 [4]) [µM] | MIC (C. albicans ATCC 90028) [µM] | MIC (E. coli ATCC 25922 [5]; [7]) [µM] | MIC [6] [µM] | Hemolysis (HC10), concentration of compound at 10% hemolytic activity (human red blood cells) [µM] | Dox/P. a: fold change (intrinsic MIC of test compound / combination MIC) (P. aeruginosa ATCC 27853 [3]) [fold] | MIC (A. baumannii AYE; [8]) [µM] | MIC (P. aeruginosa PAO1; [9]) [µM] | MIC (K. pneumoniae ATCC 13883; [10]) [µM] | further results
O=C(C=Cc1ccccc1)NCCCNCCCCCCCCNCCCNC(=O)C=Cc1ccccc1.O=C(O)C(F)(F)F.O=C(O)C(F)(F)F [Compound 13d, N^1,N^8-Bis(3-cinnamamidopropyl)octane-1,8-diaminium 2,2,2-trifluoroacetate] | < 4.37 | 42.8 | 25 | 4 | 6.25 | 100 | > 200 | > 42.8 | 100 | 42.8 | >42.9 | – | – | – | – | Cytotoxicity (IC50), concentration of compound at 50% cytotoxicity [1]: non-toxic
COc1ccc(/C=C/C(=O)NCCCNCCCCCCCCNCCCNC(=O)/C=C/c2ccc(OC)cc2)cc1.O=C(O)C(F)(F)F.O=C(O)C(F)(F)F [Compound 14d, N^1,N^8-Bis(3-((E)-3-(4-methoxyphenyl)acrylamido)propyl)octane-1,8-diaminium 2,2,2-trifluoroacetate] | < 4.40 | ≤ 0.31 | 62 | 1 | 15.5 | 7.75 | 248 | > 39.7 | 62 | – | – | 16 | – | – | – | Cytotoxicity (IC50), concentration of compound at 50% cytotoxicity [1]: does not exhibit cytotoxicity/hemolysis
COc1c(Br)cc(/C=C/C(=O)NCCCNCCCCCCNCCCNC(=O)/C=C/c2cc(Br)c(OC)c(Br)c2)cc1Br.O=C(O)C(F)(F)F.O=C(O)C(F)(F)F [Compound 16b, N^1,N^6-Bis(3-((E)-3-(3,5-dibromo-4-methoxyphenyl)acrylamido)propyl)hexane-1,6-diaminium 2,2,2-trifluoroacetate] | 4.81 | ≤ 0.23 | 11.4 | 1 | – | 5.71 | > 183 | 29.2 | 11.4 | ≤ 0.23 | 0.91 | > 16 | – | – | – | –
COc1c(Br)cc(/C=C/C(=O)NCCCNCCCCCCCNCCCNC(=O)/C=C/c2cc(Br)c(OC)c(Br)c2)cc1Br.O=C(O)C(F)(F)F.O=C(O)C(F)(F)F [Compound 16c, N^1,N^7-Bis(3-((E)-3-(3,5-dibromo-4-methoxyphenyl)acrylamido)propyl)heptane-1,7-diaminium 2,2,2-trifluoroacetate] | 4.66 | ≤ 0.23 | 22.6 | 0.5 | – | 5.64 | 180 | > 28.9 | 11.3 | ≤ 0.23 | 0.31 | 16 | – | – | – | –
COc1c(Br)cc(/C=C/C(=O)NCCCNCCCCCCCCNCCCNC(=O)/C=C/c2cc(Br)c(OC)c(Br)c2)cc1Br.O=C(O)C(F)(F)F.O=C(O)C(F)(F)F [Compound 16d, N^1,N^8-Bis(3-((E)-3-(3,5-dibromo-4-methoxyphenyl)acrylamido)propyl)octane-1,8-diaminium 2,2,2-trifluoroacetate] | 4.96 | ≤ 0.22 | 22.3 | 0.5 | 44.5 | 5.57 | > 178 | > 28.5 | 11.1 | ≤ 0.22 | ≤0.22 | > 4 | – | – | – | –
COc1c(Br)cc(/C=C/C(=O)NCCCNCCCCCCCCCCCCNCCCNC(=O)/C=C/c2cc(Br)c(OC)c(Br)c2)cc1Br.O=C(O)C(F)(F)F.O=C(O)C(F)(F)F [Compound 16f, N^1,N^12-Bis(3-((E)-3-(3,5-dibromo-4-methoxyphenyl)acrylamido)propyl)dodecane-1,12-diaminium 2,2,2-trifluoroacetate] | 5.84 | ≤ 0.21 | 5.30 | 1 | 42.4 | 5.3 | > 170 | ≤ 0.21 | 5.3 | ≤ 0.21 | 0.24 | > 4 | – | – | – | MIC (E. coli ATCC 25922 [5]; E. coli ATCC 25922): 5.30 µM
O=C(N[C@H](CO)[C@H](O)c1ccc([N+](=O)[O-])cc1)C(Cl)Cl [chloramphenicol] | – | – | – | – | – | 1.5 to 3 (≈ 0.485 to 0.969 µg/mL) | – | – | – | – | – | – | > 200 | > 200 | > 200 | –
C[C@H]1c2cccc(O)c2C(=O)C2=C(O)[C@]3(O)C(=O)C(C(N)=O)=C(O)[C@@H](N(C)C)[C@@H]3[C@@H](O)[C@@H]21 [doxycycline, reference compound] | – | – | – | – | – | – | 90 (≈ 40 µg/mL) | – | – | – | – | – | – | 144 | – | –
CC[C@H]1OC(=O)[C@H](C)[C@@H](O[C@H]2C[C@@](C)(OC)[C@@H](O)[C@H](C)O2)[C@H](C)[C@@H](O[C@@H]2O[C@H](C)C[C@H](N(C)C)[C@H]2O)[C@](C)(O)C[C@@H](C)C(=O)[C@H](C)[C@@H](O)[C@]1(C)O [erythromycin] | – | – | – | – | – | – | – | – | – | – | – | – | > 200 | > 200 | > 200 | –
CN(C)c1ccc(O)c2c1C[C@H]1C[C@H]3[C@H](N(C)C)C(O)=C(C(N)=O)C(=O)[C@@]3(O)C(O)=C1C2=O [minocycline] | – | – | – | – | – | – | – | – | – | – | – | – | 27 (≈ 12.4 µg/mL) | 70 | 27 (≈ 12.4 µg/mL) | –
CCn1cc(C(=O)O)c(=O)c2ccc(C)nc21 [nalidixic acid] | – | – | – | – | – | – | – | – | – | – | – | – | > 200 | > 200 | > 200 | –
CN[C@H](CC(C)C)C(=O)N[C@H]1C(=O)N[C@@H](CC(N)=O)C(=O)N[C@H]2C(=O)N[C@H]3C(=O)N[C@H](C(=O)N[C@H](C(=O)O)c4cc(O)cc(O)c4-c4cc3ccc4O)[C@H](O)c3ccc(c(Cl)c3)Oc3cc2cc(c3O[C@@H]2O[C@H](CO)[C@@H](O)[C@H](O)[C@H]2O[C@H]2C[C@](C)(N)[C@H](O)[C@H](C)O2)Oc2ccc(cc2Cl)[C@H]1O [vancomycin] | – | – | – | – | – | – | – | – | – | – | – | – | – | – | – | MIC (MRSA ATCC 43300): 0.7 µM (≈ 1.01 µg/mL); MIC (A. baumannii AYE): 138 µM (≈ 200 µg/mL); MIC (P. aeruginosa PAO1; PAO1, read-out: MIC alone, P. a): 138 µM (≈ 200 µg/mL); MIC (K. pneumoniae ATCC 13883; ATCC13883, read-out: MIC alone, K. p): 138 µM (≈ 200 µg/mL)
